Measurements reported in PubChem BioAssay AID330 (DTP/NCI, 2004).
Where “and” joins values, the source holds several entries; their conditions need not be identical. Equal entries are not always repeated. Toxic doses and inconclusive results are not listed. The calls were made as follows: active = survival T/C of 150% or more; inactive = T/C below 125% in these data.

System: P388 leukemia ip, CD2F1 mice, survival T/C
Test: NCI In Vivo Anticancer Drug Screen. Data for tumor model P388 Leukemia (intraperitoneal) in CD2F1 (CDF1) mice
Details: endpoint: median survival time, higher = longer survival
In short: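 Mice carrying the transplanted tumor received test compound or vehicle. Survival was recorded in each group, and the value is the treated-group measurement divided by that of the vehicle-treated control group.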

[1] = dose: 50.0 mg/kg/injection, schedule: Q01DX009 (ip), vehicle: saline with Tween-80
[2] = dose: 100.0 mg/kg/injection, schedule: Q01DX009 (ip), vehicle: saline with Tween-80
[3] = dose: 200.0 mg/kg/injection, schedule: Q01DX009 (ip), vehicle: saline with Tween-80
[4] = dose: 12.5 mg/kg/injection, schedule: Q01DX005 (ip), vehicle: Klucel (hydroxypropylcellulose) (HPC)
[5] = dose: 25.0 mg/kg/injection, schedule: Q01DX009 (ip), vehicle: saline with Tween-80
[6] = dose: 50.0 mg/kg/injection, schedule: Q01DX009 (ip), vehicle: saline
[7] = dose: 100.0 mg/kg/injection, schedule: Q01DX009 (ip), vehicle: saline
[8] = dose: 200.0 mg/kg/injection, schedule: Q01DX009 (ip), vehicle: saline
[9] = dose: 100.0 mg/kg/injection, schedule: Q01DX001 (ip), vehicle: saline with Tween-80
[10] = dose: 200.0 mg/kg/injection, schedule: Q01DX001 (ip), vehicle: saline with Tween-80
[11] = dose: 400.0 mg/kg/injection, schedule: Q01DX001 (ip), vehicle: saline with Tween-80
[12] = dose: 200.0 mg/kg/injection, schedule: Q01DX005 (ip), vehicle: Klucel (hydroxypropylcellulose) (HPC)

Measured: T/C

CC(NCNc1ccc2ccccc2c1)C(=O)O (configuration not stated)
inactive: [1] 104 % of control | [2] 106 % of control | [3] 98 % of control

C1=C[N-]c2c3c(ccc2=C1)=CC=C[N-]3.O=S(=O)(O)O.[Zn+2]
inactive: dose: 3.12 mg/kg/injection, schedule: Q04DX002 (ip), vehicle: Klucel (hydroxypropylcellulose) (HPC) 108 % of control | dose: 6.25 mg/kg/injection, schedule: Q04DX002 (ip), vehicle: Klucel (hydroxypropylcellulose) (HPC) 100 % of control | dose: 12.5 mg/kg/injection, schedule: Q04DX002 (ip), vehicle: Klucel (hydroxypropylcellulose) (HPC) 109 % of control | dose: 25.0 mg/kg/injection, schedule: Q04DX002 (ip), vehicle: Klucel (hydroxypropylcellulose) (HPC) 111 % of control

CC(C)NC(C#N)C(C)C (configuration not stated)
inactive: dose: 3.12 mg/kg/injection, schedule: Q01DX005 (ip), vehicle: Klucel (hydroxypropylcellulose) (HPC) 99 % of control | dose: 6.25 mg/kg/injection, schedule: Q01DX005 (ip), vehicle: Klucel (hydroxypropylcellulose) (HPC) 108 % of control | [4] 102 % of control

COc1cc2c(cc1OC)C1CC(OC(=O)c3ccccc3)(c3nccc4cc(OC)c(OC)cc34)CCN1CC2 (configuration not stated)
inactive: dose: 12.5 mg/kg/injection, schedule: Q01DX009 (ip), vehicle: saline with Tween-80 97 % of control | [5] 93 % of control | [1] 95 % of control and 97 % of control

O=C(O)C(=O)O.[Mn]
inactive: dose: 100.0 mg/kg/injection, schedule: Q04DX003 (ip), vehicle: saline with Tween-80 86 % of control

CC(C)(CCC#N)C1NC(C(=O)O)CS1 (configuration not stated)
inactive: [6] 102 % of control | [7] 99 % of control | [8] 87 % of control

CN/N=C/c1cc(=O)n(C)c(=O)n1C
inactive: [1] 101 % of control | [2] 101 % of control | [3] 99 % of control

N=C1N=Nc2nc(C(C(=O)c3cccs3)c3nc4n(c3O)C(=N)N=N4)c(O)n21 (configuration not stated)
inactive: dose: 60.0 mg/kg/injection, schedule: Q01DX005 (ip), vehicle: saline with Tween-80 97 % of control | dose: 120.0 mg/kg/injection, schedule: Q01DX005 (ip), vehicle: saline with Tween-80 100 % of control | dose: 240.0 mg/kg/injection, schedule: Q01DX005 (ip), vehicle: saline with Tween-80 106 % of control

S=c1nn[nH]c2[nH]ncc12
inactive: [9] 94 % of control | [10] 102 % of control | [11] 108 % of control

CCN1CCC(C2(C(=O)OC)c3ccccc3-c3ccccc32)C1 (configuration not stated)
inactive: dose: 6.25 mg/kg/injection, schedule: Q04DX003 (ip), vehicle: saline 106 % of control | dose: 12.5 mg/kg/injection, schedule: Q04DX003 (ip), vehicle: saline 108 % of control | dose: 25.0 mg/kg/injection, schedule: Q04DX003 (ip), vehicle: saline 103 % of control | dose: 100.0 mg/kg/injection, schedule: Q04DX003 (ip), vehicle: saline 104 % of control

COc1ccc(-c2cc(O)c3c(c2N)C(=O)c2c(O)ccc(N)c2C3=O)cc1
inactive: dose: 50.0 mg/kg/injection, schedule: Q01DX005 (ip), vehicle: Klucel (hydroxypropylcellulose) (HPC) 86 % of control | dose: 100.0 mg/kg/injection, schedule: Q01DX005 (ip), vehicle: Klucel (hydroxypropylcellulose) (HPC) 90 % of control | [12] 90 % of control

CC1(C)CN(c2ccccc2)N(C(=O)C(=O)N2C(=O)C(C)(C)CN2c2ccccc2)C1=O
inactive: dose: 100.0 mg/kg/injection, schedule: Q04DX002 (ip), vehicle: saline 104 % of control | dose: 200.0 mg/kg/injection, schedule: Q04DX002 (ip), vehicle: saline 102 % of control | dose: 400.0 mg/kg/injection, schedule: Q04DX002 (ip), vehicle: saline 100 % of control

COc1cc(-c2ccc(Nc3ccccc3C(=O)O)c(OC)c2)ccc1Nc1ccccc1C(=O)O
inactive: [6] 105 % of control | [7] 100 % of control and 104 % of control and 109 % of control | [8] 110 % of control | dose: 400.0 mg/kg/injection, schedule: Q01DX009 (ip), vehicle: saline 117 % of control and 124 % of control and 86 % of control

O=C(Nc1ccccc1)OC(CN1CCCCC1)C(CN1CCCCC1)OC(=O)Nc1ccccc1 (configuration not stated)
inactive: [4] 99 % of control | dose: 25.0 mg/kg/injection, schedule: Q01DX005 (ip), vehicle: Klucel (hydroxypropylcellulose) (HPC) 91 % of control | [12] 87 % of control

ClCSCc1ccccc1
inactive: dose: 12.5 mg/kg/injection, schedule: Q01DX009 (ip), vehicle: other 110 % of control | dose: 25.0 mg/kg/injection, schedule: Q01DX009 (ip), vehicle: other 110 % of control | dose: 50.0 mg/kg/injection, schedule: Q01DX009 (ip), vehicle: other 110 % of control

Cc1ccc(C(C)C)c(OCCN)c1
inactive: dose: 6.25 mg/kg/injection, schedule: Q01DX009 (ip), vehicle: saline 112 % of control | dose: 12.5 mg/kg/injection, schedule: Q01DX009 (ip), vehicle: saline 110 % of control | dose: 25.0 mg/kg/injection, schedule: Q01DX009 (ip), vehicle: saline 107 % of control | [6] 94 % of control

CCOc1c(N=Nc2ccccc2OC)c(-c2ccccc2)nn1C(=S)S
inactive: dose: 50.0 mg/kg/injection, schedule: Q01DX005 (ip), vehicle: saline with Tween-80 102 % of control | dose: 100.0 mg/kg/injection, schedule: Q01DX005 (ip), vehicle: saline with Tween-80 101 % of control | dose: 200.0 mg/kg/injection, schedule: Q01DX005 (ip), vehicle: saline with Tween-80 108 % of control

CC(=O)OC(C)N(C(C)=O)c1ncc([N+](=O)[O-])s1 (configuration not stated)
inactive: [5] 100 % of control | [1] 101 % of control | [2] 106 % of control | [3] 110 % of control

O=C(O)c1[nH]c(=O)[nH]c(=O)c1CO
inactive: dose: 6.25 mg/kg/injection, schedule: Q01DX009 (ip), vehicle: distilled water + Tween-80 99 % of control | dose: 12.5 mg/kg/injection, schedule: Q01DX009 (ip), vehicle: distilled water + Tween-80 100 % of control | dose: 25.0 mg/kg/injection, schedule: Q01DX009 (ip), vehicle: distilled water + Tween-80 103 % of control | dose: 50.0 mg/kg/injection, schedule: Q01DX009 (ip), vehicle: distilled water + Tween-80 110 % of control | dose: 100.0 mg/kg/injection, schedule: Q01DX009 (ip), vehicle: distilled water + Tween-80 100 % of control | dose: 200.0 mg/kg/injection, schedule: Q01DX009 (ip), vehicle: distilled water + Tween-80 95 % of control | dose: 400.0 mg/kg/injection, schedule: Q01DX009 (ip), vehicle: distilled water + Tween-80 104 % of control

CCCCN(CCCC)C(=N)OC
inactive: dose: 12.5 mg/kg/injection, schedule: Q01DX005 (ip), vehicle: suspension in saline 100 % of control | dose: 25.0 mg/kg/injection, schedule: Q01DX005 (ip), vehicle: suspension in saline 108 % of control | dose: 50.0 mg/kg/injection, schedule: Q01DX005 (ip), vehicle: saline 99 % of control | dose: 50.0 mg/kg/injection, schedule: Q01DX005 (ip), vehicle: suspension in saline 117 % of control

O=[N+]([O-])O.[Mn].c1ccc(/C2=c3\cc/c([n-]3)=C(\c3ccccc3)c3ccc([n-]3)/C(c3ccccc3)=c3/cc/c([n-]3)=C(\c3ccccc3)c3ccc2[n-]3)cc1
inactive: dose: 25.0 mg/kg/injection, schedule: Q04DX002 (ip), vehicle: saline with Tween-80 100 % of control | dose: 50.0 mg/kg/injection, schedule: Q04DX002 (ip), vehicle: saline with Tween-80 94 % of control | dose: 100.0 mg/kg/injection, schedule: Q04DX002 (ip), vehicle: Klucel (hydroxypropylcellulose) (HPC) 108 % of control | dose: 100.0 mg/kg/injection, schedule: Q04DX002 (ip), vehicle: saline with Tween-80 94 % of control | dose: 400.0 mg/kg/injection, schedule: Q04DX002 (ip), vehicle: Klucel (hydroxypropylcellulose) (HPC) 108 % of control

Oc1c(-c2ccccc2)nc2ccccn12
inactive: dose: 60.0 mg/kg/injection, schedule: Q01DX005 (ip), vehicle: Klucel (hydroxypropylcellulose) (HPC) 94 % of control | dose: 120.0 mg/kg/injection, schedule: Q01DX005 (ip), vehicle: Klucel (hydroxypropylcellulose) (HPC) 96 % of control | dose: 240.0 mg/kg/injection, schedule: Q01DX005 (ip), vehicle: Klucel (hydroxypropylcellulose) (HPC) 107 % of control

Cc1ccc(O)c(C2CC(=O)NC(N)=N2)c1 (configuration not stated)
inactive: [6] 110 % of control | [7] 101 % of control | [8] 104 % of control

COC1=CC2C3C(=O)NC(=O)C3C1C1CC(C#N)C21OC (configuration not stated)
inactive: [9] 104 % of control | [10] 114 % of control | [11] 107 % of control
